Experimental findings from patent publication US11464780B2, “Pyrazolopyrimidine derivative and use thereof” (Simcere Pharmaceutical Co. Ltd., priority 2018, dated 2022) are described below.

In experiment [1] the target is T1, Ros-G2032R (Homo sapiens, UniProt P08922, G2032R).
T1 construct: purchased Reaction Biology Corp. (contract assay)
The experiment can be described thus: Kinase inhibitory activity (33P-ATP filter binding, Reaction Biology Corp.). It counts as biochemical. The settings on record: read-out: The half maximal inhibitory concentration IC50 on the kinases, Ros-G2032R. In outline:
(§1)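 Radioactivity was read by filter binding. Activity was expressed as remaining activity relative to DMSO control, and IC50 came from dose-effect curve fitting.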

In experiment [2] the target is T2, Ros1 (Homo sapiens, UniProt P08922).
T2 construct: purchased Reaction Biology Corp. (contract assay)
The experiment is described as above. It counts as biochemical. The note with it: read-out: The half maximal inhibitory concentration IC50 on the kinases, Ros1. In outline:
as §1

The target in experiment [3] is T3, TrkA (Homo sapiens, UniProt P04629).
T3 construct: purchased Reaction Biology Corp. (contract assay)
Described as above. The format is biochemical. The settings on record: read-out: The half maximal inhibitory concentration IC50 on the kinases, TrkA. In outline: as §1

Experiment [4] deals with T4, TrkA-G595R (Homo sapiens, UniProt P04629, G595R).
T4 construct: purchased Reaction Biology Corp. (contract assay)
Described as above. It counts as biochemical. The note with it: read-out: The half maximal inhibitory concentration IC50 on the kinases, TrkA-G595R. An outline of the steps: as §1

Experiment [5] concerns the target T5, TrkA-G667C (Homo sapiens, UniProt P04629, G667C).
T5 construct: purchased Reaction Biology Corp. (contract assay)
The description is as above. It counts as biochemical. The note with it: read-out: The half maximal inhibitory concentration IC50 on the kinases, TrkA-G667C. In outline: as §1

The target in experiment [6] is T6, TrkC (Homo sapiens, UniProt Q16288).
T6 construct: purchased Reaction Biology Corp. (contract assay)
The experiment is described as above. The format is biochemical. The note with it: read-out: The half maximal inhibitory concentration IC50 on the kinases, TrkC. In outline:
as §1

The target of experiment [7] is T7, ALK (Homo sapiens, UniProt Q9UM73).
T7 construct: purchased Reaction Biology Corp. (contract assay)
The experiment is described as above. It counts as biochemical. The settings on record: read-out: The half maximal inhibitory concentration IC50 on the kinases, ALK. An outline of the steps:
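Compounds (10 concentrations, 3-fold dilutions, 2% DMSO final) preincubated 20 min at room temperature with kinase and substrate in Hepes pH 7.5 buffer. Reaction started with ^33P-ATP, 120 min at room temperature; filter-binding radioactivity expressed as activity remaining versus DMSO control, IC50 from fitted dose-response curve.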

The target of experiment [8] is T8, Ba/F3 LMNA-NTRK1-WT stably transfected cell line (Homo sapiens, UniProt P04629).
T8 construct: fused on or other part: P02545 (Prelamin-A/C)
The experiment can be described thus: Cell proliferation inhibition (CellTiter-Glo). It counts as cell-based. The note with it: 72 hours, read-out: The half maximal inhibitory concentration IC50 against cells, Ba/F3 LMNA-NTRK1-WT. In outline: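 Stably transfected Ba/F3 cells (≥90% viable) were seeded overnight, then exposed in triplicate to a 9-point, 3-fold series (highest 10 μM, prepared as 10× solutions) for 72 h at 37 °C, 5% CO2. Viability was read by ATP luminescence, and IC50 came from a nonlinear sigmoidal fit.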
(In general: Cellular ATP, detected with luciferase, serves as a proxy for viable cell number.)

Experiment [9] addresses T9, Ba/F3 LMNA-NTRK1-F589L stably transfected cell line (Homo sapiens, UniProt P04629, F589L, cells depend on it).
T9 construct: fused on or other part: P02545 (Prelamin-A/C)
The experiment can be described thus: Cell proliferation inhibition (CellTiter-Glo). The format is cell-based. The settings on record: 72 hours, read-out: The half maximal inhibitory concentration IC50 against cells, Ba/F3 LMNA-NTRK1-F589L.

Experiment [10] addresses T10, Ba/F3 LMNA-NTRK1-G595R stably transfected cell line (Homo sapiens, UniProt P04629, G595R, cells depend on it).
T10 construct: fused on or other part: P02545 (Prelamin-A/C)
The experiment can be described thus: Cell proliferation inhibition (CellTiter-Glo). It counts as cell-based. The settings on record: 72 hours, read-out: The half maximal inhibitory concentration IC50 against cells, Ba/F3 LMNA-NTRK1-G595R.

In experiment [11] the target is T11, BaF3 ETV6-NTRK3-G623R stably transfected cell line (Homo sapiens, UniProt Q16288, G623R, cells depend on it).
T11 construct: fused on or other part: P41212 (Transcription factor ETV6)
The experiment can be described thus: Cell proliferation inhibition (CellTiter-Glo). It counts as cell-based. The settings on record: 72 hours, read-out: The half maximal inhibitory concentration IC50 against cells, BaF3 ETV6-NTRK3-G623R.

The target in experiment [12] is T12, Ba/F3 SLC34A2-ROS1-WT stably transfected cell line (Homo sapiens, UniProt P08922).
T12 construct: fused on or other part: O95436 (Sodium-dependent phosphate transport protein 2B)
The experiment can be described thus: Cell proliferation inhibition (CellTiter-Glo). The format is cell-based. The settings on record: 72 hours, read-out: The half maximal inhibitory concentration IC50 against cells, Ba/F3 SLC34A2-ROS1-WT.

T1 sequence (P08922 28-2347 G2032R): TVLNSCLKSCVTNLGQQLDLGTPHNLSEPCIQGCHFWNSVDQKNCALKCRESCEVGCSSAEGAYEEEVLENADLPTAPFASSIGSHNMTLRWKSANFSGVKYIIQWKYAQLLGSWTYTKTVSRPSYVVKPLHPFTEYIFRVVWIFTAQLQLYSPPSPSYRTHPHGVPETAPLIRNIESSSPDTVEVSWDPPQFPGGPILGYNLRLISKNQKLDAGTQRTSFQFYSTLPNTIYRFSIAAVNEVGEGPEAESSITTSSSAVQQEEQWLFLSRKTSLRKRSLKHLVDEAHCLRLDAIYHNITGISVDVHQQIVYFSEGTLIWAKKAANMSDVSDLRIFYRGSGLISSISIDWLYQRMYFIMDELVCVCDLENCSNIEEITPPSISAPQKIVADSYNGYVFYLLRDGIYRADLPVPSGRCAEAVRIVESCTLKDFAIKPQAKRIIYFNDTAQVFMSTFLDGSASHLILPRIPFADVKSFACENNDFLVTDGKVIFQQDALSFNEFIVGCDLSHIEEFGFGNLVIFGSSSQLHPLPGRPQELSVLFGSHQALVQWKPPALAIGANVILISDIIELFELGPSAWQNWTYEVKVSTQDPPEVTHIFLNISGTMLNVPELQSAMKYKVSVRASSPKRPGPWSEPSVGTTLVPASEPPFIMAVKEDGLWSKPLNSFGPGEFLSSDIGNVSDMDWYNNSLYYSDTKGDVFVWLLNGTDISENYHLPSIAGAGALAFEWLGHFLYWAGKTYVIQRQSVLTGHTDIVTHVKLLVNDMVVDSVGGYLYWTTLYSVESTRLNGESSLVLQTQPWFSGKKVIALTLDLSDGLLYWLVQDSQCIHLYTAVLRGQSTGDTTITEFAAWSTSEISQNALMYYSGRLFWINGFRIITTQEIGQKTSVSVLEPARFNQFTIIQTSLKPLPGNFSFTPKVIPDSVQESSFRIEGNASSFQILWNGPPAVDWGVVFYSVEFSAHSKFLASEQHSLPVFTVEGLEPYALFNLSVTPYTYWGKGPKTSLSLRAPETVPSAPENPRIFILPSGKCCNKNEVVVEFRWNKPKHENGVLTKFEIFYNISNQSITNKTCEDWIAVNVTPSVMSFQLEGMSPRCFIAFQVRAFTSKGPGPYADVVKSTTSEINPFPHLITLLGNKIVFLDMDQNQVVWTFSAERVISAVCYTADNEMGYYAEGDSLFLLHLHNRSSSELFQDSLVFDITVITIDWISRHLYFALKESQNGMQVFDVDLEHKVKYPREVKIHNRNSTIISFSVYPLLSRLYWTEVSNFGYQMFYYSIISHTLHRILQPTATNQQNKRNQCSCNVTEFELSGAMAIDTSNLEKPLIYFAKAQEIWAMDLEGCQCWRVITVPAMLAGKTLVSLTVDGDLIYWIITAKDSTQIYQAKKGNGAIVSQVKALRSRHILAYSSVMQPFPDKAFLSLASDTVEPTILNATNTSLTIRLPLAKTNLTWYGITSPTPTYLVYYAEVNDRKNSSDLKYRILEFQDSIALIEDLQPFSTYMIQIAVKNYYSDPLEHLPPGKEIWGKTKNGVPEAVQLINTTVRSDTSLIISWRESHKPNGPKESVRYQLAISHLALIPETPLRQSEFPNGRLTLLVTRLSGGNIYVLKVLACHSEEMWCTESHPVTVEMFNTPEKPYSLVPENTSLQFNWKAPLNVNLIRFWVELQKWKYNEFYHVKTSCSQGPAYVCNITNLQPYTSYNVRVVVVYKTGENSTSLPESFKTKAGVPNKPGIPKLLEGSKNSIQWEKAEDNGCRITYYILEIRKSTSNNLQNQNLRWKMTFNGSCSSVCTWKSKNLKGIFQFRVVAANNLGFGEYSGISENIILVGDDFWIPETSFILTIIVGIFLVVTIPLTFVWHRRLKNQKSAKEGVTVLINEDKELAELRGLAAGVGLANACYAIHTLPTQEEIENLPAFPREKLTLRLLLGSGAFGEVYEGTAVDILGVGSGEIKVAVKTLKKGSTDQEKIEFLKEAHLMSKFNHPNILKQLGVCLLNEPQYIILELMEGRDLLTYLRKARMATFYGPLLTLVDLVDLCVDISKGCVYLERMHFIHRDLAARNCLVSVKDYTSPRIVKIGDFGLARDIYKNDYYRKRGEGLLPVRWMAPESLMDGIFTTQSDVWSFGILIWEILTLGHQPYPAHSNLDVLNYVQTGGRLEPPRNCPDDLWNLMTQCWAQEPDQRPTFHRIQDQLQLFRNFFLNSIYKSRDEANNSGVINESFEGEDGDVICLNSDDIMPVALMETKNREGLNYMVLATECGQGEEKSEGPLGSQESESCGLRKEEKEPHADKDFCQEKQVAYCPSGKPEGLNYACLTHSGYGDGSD
T9 sequence (P04629 whole entry F589L, the tested form may be a part): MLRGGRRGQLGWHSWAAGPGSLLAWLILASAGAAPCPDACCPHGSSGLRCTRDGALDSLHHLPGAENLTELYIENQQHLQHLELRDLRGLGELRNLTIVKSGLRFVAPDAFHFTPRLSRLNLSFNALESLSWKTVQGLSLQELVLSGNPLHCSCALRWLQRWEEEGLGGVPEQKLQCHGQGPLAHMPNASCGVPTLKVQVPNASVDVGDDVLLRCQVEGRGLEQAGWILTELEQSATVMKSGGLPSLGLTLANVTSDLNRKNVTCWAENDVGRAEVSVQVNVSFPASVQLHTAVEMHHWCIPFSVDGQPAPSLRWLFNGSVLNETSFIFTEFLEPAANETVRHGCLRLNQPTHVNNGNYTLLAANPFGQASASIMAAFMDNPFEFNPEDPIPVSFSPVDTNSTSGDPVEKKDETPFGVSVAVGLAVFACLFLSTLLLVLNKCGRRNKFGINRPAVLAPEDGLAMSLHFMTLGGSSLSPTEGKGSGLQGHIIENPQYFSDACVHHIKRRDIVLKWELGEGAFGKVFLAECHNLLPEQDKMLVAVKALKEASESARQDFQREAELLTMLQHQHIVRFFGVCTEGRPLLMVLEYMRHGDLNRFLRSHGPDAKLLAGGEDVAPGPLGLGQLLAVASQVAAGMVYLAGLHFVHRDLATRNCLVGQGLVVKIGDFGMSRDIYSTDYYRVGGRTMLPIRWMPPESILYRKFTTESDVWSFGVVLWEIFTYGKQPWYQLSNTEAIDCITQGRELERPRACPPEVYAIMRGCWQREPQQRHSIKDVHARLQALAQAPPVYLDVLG
T10 sequence (P04629 whole entry G595R, the tested form may be a part): as the sequence (P04629 whole entry F589L, the tested form may be a part) above, with L589F, G595R counted along it
T5 sequence (P04629 33-796 G667C): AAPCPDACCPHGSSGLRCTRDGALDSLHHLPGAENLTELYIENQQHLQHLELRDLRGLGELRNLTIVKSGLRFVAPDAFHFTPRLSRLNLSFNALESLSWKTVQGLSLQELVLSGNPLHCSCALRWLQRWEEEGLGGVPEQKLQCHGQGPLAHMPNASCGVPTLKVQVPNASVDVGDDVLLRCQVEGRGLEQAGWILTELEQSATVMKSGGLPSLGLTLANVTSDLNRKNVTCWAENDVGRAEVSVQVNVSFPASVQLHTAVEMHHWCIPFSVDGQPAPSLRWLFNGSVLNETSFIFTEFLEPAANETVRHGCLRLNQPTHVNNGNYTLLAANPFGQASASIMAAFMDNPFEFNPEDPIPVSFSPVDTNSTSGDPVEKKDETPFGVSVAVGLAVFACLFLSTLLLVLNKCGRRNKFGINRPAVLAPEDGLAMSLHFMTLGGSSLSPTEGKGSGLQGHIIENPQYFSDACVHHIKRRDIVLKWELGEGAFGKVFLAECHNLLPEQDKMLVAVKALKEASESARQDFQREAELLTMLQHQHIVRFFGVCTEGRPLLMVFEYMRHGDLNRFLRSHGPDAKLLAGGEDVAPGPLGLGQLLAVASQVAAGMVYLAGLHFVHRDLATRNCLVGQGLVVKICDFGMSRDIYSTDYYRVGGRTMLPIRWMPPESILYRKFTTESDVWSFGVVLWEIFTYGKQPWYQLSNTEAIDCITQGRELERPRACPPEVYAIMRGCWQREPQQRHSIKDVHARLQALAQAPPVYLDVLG
T11 sequence (Q16288 whole entry G623R, the tested form may be a part): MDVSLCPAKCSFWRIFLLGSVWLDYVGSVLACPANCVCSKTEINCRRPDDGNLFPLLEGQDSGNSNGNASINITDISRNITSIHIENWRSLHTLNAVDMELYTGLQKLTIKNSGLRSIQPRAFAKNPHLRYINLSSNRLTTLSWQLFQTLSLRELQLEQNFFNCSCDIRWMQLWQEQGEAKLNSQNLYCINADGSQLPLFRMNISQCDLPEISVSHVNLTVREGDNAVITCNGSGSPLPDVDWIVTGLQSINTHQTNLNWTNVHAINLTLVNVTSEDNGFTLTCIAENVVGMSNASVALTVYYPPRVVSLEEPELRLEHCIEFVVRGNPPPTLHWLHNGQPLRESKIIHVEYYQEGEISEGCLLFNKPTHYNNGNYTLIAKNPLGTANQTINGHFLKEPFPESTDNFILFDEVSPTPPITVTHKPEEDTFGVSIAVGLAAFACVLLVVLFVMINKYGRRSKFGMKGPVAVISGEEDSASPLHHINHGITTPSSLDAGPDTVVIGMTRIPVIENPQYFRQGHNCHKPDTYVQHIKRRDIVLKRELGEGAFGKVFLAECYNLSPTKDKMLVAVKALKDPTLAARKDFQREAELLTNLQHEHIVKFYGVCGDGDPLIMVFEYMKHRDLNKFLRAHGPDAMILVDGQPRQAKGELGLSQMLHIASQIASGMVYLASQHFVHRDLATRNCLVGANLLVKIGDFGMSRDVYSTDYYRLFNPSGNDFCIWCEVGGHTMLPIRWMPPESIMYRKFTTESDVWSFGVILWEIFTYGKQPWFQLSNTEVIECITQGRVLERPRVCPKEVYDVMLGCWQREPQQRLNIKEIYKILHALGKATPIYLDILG
T2 sequence (P08922 28-2347): as the sequence (P08922 28-2347 G2032R) above, with R2005G counted along it
T8 sequence (P04629 whole entry, change not shown, the tested form may be a part): as the sequence (P04629 whole entry F589L, the tested form may be a part) above, with L589F counted along it
T3 sequence (P04629 33-796): as the sequence (P04629 33-796 G667C) above, with C635G counted along it
T4 sequence (P04629 33-796 G595R): as the sequence (P04629 33-796 G667C) above, with G563R, C635G counted along it

In the case of `O=C1N[C@@H]2COC[C@@H]2Oc2ncc(F)cc2[C@H]2CCON2c2ccn3ncc1c3n2` [WX008A], the IC50 in experiment [1] turned out to be 0.52 nM; in experiment [2], 0.16 nM; in experiment [3], 1.61 nM; in experiment [4], 2.31 nM; in experiment [5] it was 6.49 nM; in experiment [6], 0.05 nM. The IC50 in experiment [7] came to 10.4 nM. The GI50 in experiment [8] came out at 1.6 nM; in [9] it was 1.59 nM; in [10], 3.92 nM; in [11] it was 3.49 nM; in [12], 5.45 nM.
Consider `O=C1NC2(CC2)COc2ncc(F)cc2[C@H]2CCON2c2ccn3ncc1c3n2` [WX002A], for which the IC50 came out at 0.4 nM in experiment [1]; 0.14 nM in experiment [2]; 2.07 nM in experiment [3]; 3.6 nM in experiment [4]; 7 nM in experiment [5]; 0.14 nM in experiment [6]. Also, the IC50 in experiment [7] came out at 13 nM. Also, the GI50 in [8] was 1.26 nM; in [9] it was 0.78 nM; in experiment [10] it was 6.2 nM; in [11], 3.4 nM; in experiment [12], 2.53 nM.
